Here are results for five compounds from ChEMBL document CHEMBL5104192, “Late-Stage Functionalization with Cysteine Staples Generates Potent and Selective Melanocortin Receptor-1 Agonists” (J Med Chem, 2022).

Molecules are shown by their SMILES. *1 amine or outer side, *2 acyl side, *3 side chain or, on linkers, in order; H or OH if unused. Where a SMILES comes first, the peptide text is derived from it. Bridges are numbered along the chain shown (N, C = ends). [ ]: non-standard residue; d: D form. X6 = O=C(NCCOCCOCCNC(=O)c1ccc2c(c1)C(=O)OC21c2ccc(O)cc2Oc2cc(O)ccc21)OCC1C2CCc3c([*:1])nnc([*:2])c3CCC21; X5 = O=C(O)CCOCCOCCOCCOCCNC(=O)OCC1C2CCc3c([*:1])nnc([*:2])c3CCC21; X4 = C#CCCCCN1C(=O)C([*:1])=C([*:2])C1=O; X3 = NC(=O)/C(=C(\C(=O)O)[*:2])[*:1]; Nle = CCCC[C@H](N)C(=O)O; X7 = C(C[*:1])C[*:2] A value given as a limit tells only on which side of the number the result lay.

The species entered for experiment [1] is Homo sapiens. In words: Selectivity ratio of EC50 for human MC3R to EC50 for human MC1R.
The species named for experiment [2] is Homo sapiens. In words: Selectivity ratio of Ki for human MC4R to Ki for human MC1R.
The species named for experiment [3] is Homo sapiens. Description: Selectivity ratio of Ki for human MC3R to Ki for human MC1R.
Experiment [4] deals with T1, Melanocortin receptor 4 (Homo sapiens, UniProt P32245). Description: Displacement of [125I]-NDP-alpha-MSH from human MC4R expressed in HEK2936E cell membrane measured after 16 to 23 hrs by 1450 microbeta trilux scintillation proximity assay. It counts as cell membranes.
T1 sequence (P32245 whole entry): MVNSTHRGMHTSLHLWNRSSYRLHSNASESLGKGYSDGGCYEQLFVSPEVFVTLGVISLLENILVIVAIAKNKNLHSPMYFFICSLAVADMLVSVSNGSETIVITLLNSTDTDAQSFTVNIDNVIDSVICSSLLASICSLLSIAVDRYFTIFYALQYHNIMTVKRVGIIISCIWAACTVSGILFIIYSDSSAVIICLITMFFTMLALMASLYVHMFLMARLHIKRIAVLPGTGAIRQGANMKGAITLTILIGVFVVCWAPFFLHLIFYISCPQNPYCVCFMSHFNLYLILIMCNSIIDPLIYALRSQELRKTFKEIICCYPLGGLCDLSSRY
Experiment [5] addresses T1, Melanocortin receptor 4. Description: Agonist activity at human MC4R expressed in HEK2936E cells assessed as cAMP production in presence of IBMX by time resolved fluorescence assay. It counts as functional, cell-based. (In general: Cyclic AMP is a second messenger, typically raised through Gs and lowered through Gi signalling.)
Experiment [6] has as its target T2, Melanocortin receptor 3 (Homo sapiens, UniProt P41968). In words: Agonist activity at human MC3R expressed in HEK2936E cells assessed as cAMP production in presence of IBMX by time resolved fluorescence assay. It counts as functional, cell-based.
For experiment [7], the target named is T3, Melanocyte-stimulating hormone receptor (Homo sapiens, UniProt Q01726). Description: Displacement of [125I]-NDP-alpha-MSH from human MC1R expressed in HEK2936E cell membrane measured after 16 to 23 hrs by 1450 microbeta trilux scintillation proximity assay. It counts as cell membranes. (In general: Displacement assays read how much labelled ligand stays bound in the presence of the test substance.)
T3 sequence (Q01726 whole entry): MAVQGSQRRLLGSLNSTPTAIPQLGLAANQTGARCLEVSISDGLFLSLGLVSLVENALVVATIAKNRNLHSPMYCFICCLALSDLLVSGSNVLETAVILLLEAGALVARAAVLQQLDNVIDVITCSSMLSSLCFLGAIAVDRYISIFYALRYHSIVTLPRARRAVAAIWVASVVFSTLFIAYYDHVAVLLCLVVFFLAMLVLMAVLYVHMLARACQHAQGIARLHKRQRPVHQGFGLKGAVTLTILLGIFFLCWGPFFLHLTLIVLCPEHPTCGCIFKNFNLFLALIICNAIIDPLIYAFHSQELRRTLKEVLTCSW

The species entered for experiment [8] is Homo sapiens. In words: Selectivity ratio of EC50 for human MC4R to EC50 for human MC1R.
For experiment [9], the target named is T3, Melanocyte-stimulating hormone receptor. In words: Agonist activity at human MC1R expressed in HEK2936E cells assessed as cAMP production in presence of IBMX by time resolved fluorescence assay. It counts as functional, cell-based.
Experiment [10] has as its target T2, Melanocortin receptor 3. Description: Displacement of [125I]-NDP-alpha-MSH from human MC3R expressed in HEK2936E cell membrane measured after 16 to 23 hrs by 1450 microbeta trilux scintillation proximity assay. Format: cell membranes.

T2 sequence (P41968 whole entry): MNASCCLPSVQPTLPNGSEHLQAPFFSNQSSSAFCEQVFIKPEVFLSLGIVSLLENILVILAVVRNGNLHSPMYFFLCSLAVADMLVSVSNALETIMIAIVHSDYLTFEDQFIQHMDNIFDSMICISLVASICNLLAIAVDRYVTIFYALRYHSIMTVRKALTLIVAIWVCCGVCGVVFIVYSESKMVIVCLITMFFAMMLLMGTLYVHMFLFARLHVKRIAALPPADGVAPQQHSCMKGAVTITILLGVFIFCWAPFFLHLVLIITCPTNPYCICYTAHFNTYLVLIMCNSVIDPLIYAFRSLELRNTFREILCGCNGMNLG

As usually defined, the Ki is the dissociation constant of the complex between target and ligand, obtained from inhibition or displacement. `CCCC[C@@H]1NC(=O)[C@@H]2CS/C(C(=O)O)=C(/C(N)=O)SC[C@H](NC(=O)[C@H](CCCNC(=N)N)NC(=O)[C@H](CC(=O)O)NC(=O)[C@H](Cc3c[nH]c4ccccc34)NC(=O)[C@H](CCCNC(=N)N)NC(=O)[C@H](Cc3ccccc3)NC(=O)[C@H](Cc3cnc[nH]3)NC(=O)CNC1=O)C(=O)N[C@@H](Cc1cnc[nH]1)C(=O)N[C@@H](Cc1ccccc1)C(=O)N[C@@H](CCCNC(=N)N)C(=O)N[C@@H](Cc1c[nH]c3ccccc13)C(=O)N[C@@H](CCCNC(=N)N)C(=O)N2` (cyclo(CHFRWRC[Nle]GHFRWDR); linker 1-7 via X3): the Ratio EC50 in the experiment filed under Homo sapiens [1] came to 5; in the experiment filed under Homo sapiens [8] it was 23. The Ratio Ki stood at 31 in the experiment filed under Homo sapiens [2] and 30 in the experiment listed under Homo sapiens [3]. The Ki is 302 nM on Melanocortin receptor 4 [4], 9.77 nM in experiment [7] and 295 nM on Melanocortin receptor 3 [10]. Besides, the figures for the EC50 (at Melanocortin receptor 4 [5]; at Melanocortin receptor 3 [6]; in experiment [9] (read-out: pEC50 (converted))) were 11.2 nM, 2.57 nM and 0.479 nM, respectively.

Turning to `C#CCCCCN1C(=O)C2=C(SC[C@@H]3NC(=O)[C@H](CCCNC(=N)N)NC(=O)[C@H](CC(=O)O)NC(=O)[C@H](Cc4c[nH]c5ccccc45)NC(=O)[C@H](CCCNC(=N)N)NC(=O)[C@H](Cc4ccccc4)NC(=O)[C@H](Cc4cnc[nH]4)NC(=O)CNC(=O)[C@H](CCCC)NC(=O)[C@H](CS2)NC(=O)[C@H](CCCNC(=N)N)NC(=O)[C@H](Cc2c[nH]c4ccccc24)NC(=O)[C@H](CCCNC(=N)N)NC(=O)[C@H](Cc2ccccc2)NC(=O)[C@H](Cc2cnc[nH]2)NC3=O)C1=O` (cyclo(CHFRWRC[Nle]GHFRWDR); linker 1-7 via X4), the Ratio EC50 amounted to 2 in the experiment listed under Homo sapiens [1] and 27 in the experiment filed under Homo sapiens [8]. Besides, the values for the Ratio Ki in the experiment listed under Homo sapiens [2] and in the experiment listed under Homo sapiens [3] were 35 and 9, respectively. Moreover, the Ki on Melanocortin receptor 4 [4] was 61.7 nM; in [7] it was 1.78 nM; at Melanocortin receptor 3 [10] it was 16.6 nM. The EC50 is 2.19 nM at Melanocortin receptor 4 [5], 0.158 nM on Melanocortin receptor 3 [6] and 0.0813 nM in experiment [9] (read-out: pEC50 (converted)).

On to `CCCC[C@@H]1NC(=O)[C@@H]2CSc3nnc(c4c3CCC3C(CC4)C3COC(=O)NCCOCCOCCOCCOCCC(=O)O)SC[C@H](NC(=O)[C@H](CCCNC(=N)N)NC(=O)[C@H](CC(=O)O)NC(=O)[C@H](Cc3c[nH]c4ccccc34)NC(=O)[C@H](CCCNC(=N)N)NC(=O)[C@H](Cc3ccccc3)NC(=O)[C@H](Cc3cnc[nH]3)NC(=O)CNC1=O)C(=O)N[C@@H](Cc1cnc[nH]1)C(=O)N[C@@H](Cc1ccccc1)C(=O)N[C@@H](CCCNC(=N)N)C(=O)N[C@@H](Cc1c[nH]c3ccccc13)C(=O)N[C@@H](CCCNC(=N)N)C(=O)N2` (stereo partly specified) (cyclo(CHFRWRC[Nle]GHFRWDR); linker 1-7 via X5), for which the Ratio EC50 in the experiment filed under Homo sapiens [1] is 7; in the experiment filed under Homo sapiens [8] it was 117. For the same compound, the Ratio Ki in the experiment listed under Homo sapiens [2] came out at 263; in the experiment listed under Homo sapiens [3], 56. Also, the values for the Ki (at Melanocortin receptor 4 [4]; in [7]; on Melanocortin receptor 3 [10]) were 166 nM, 0.631 nM and 35.5 nM, respectively. Besides, the EC50 at Melanocortin receptor 4 [5] is 10.5 nM; at Melanocortin receptor 3 [6], 0.603 nM; in [9] (read-out: pEC50 (converted)), 0.0891 nM.

As to `CCCC[C@@H]1NC(=O)[C@@H]2CSc3nnc(c4c3CCC3C(CC4)C3COC(=O)NCCOCCOCCNC(=O)c3ccc4c(c3)C(=O)OC43c4ccc(O)cc4Oc4cc(O)ccc43)SC[C@H](NC(=O)[C@H](CCCNC(=N)N)NC(=O)[C@H](CC(=O)O)NC(=O)[C@H](Cc3c[nH]c4ccccc34)NC(=O)[C@H](CCCNC(=N)N)NC(=O)[C@H](Cc3ccccc3)NC(=O)[C@H](Cc3cnc[nH]3)NC(=O)CNC1=O)C(=O)N[C@@H](Cc1cnc[nH]1)C(=O)N[C@@H](Cc1ccccc1)C(=O)N[C@@H](CCCNC(=N)N)C(=O)N[C@@H](Cc1c[nH]c3ccccc13)C(=O)N[C@@H](CCCNC(=N)N)C(=O)N2` (stereo partly specified) (cyclo(CHFRWRC[Nle]GHFRWDR); linker 1-7 via X6), the Ratio EC50 came out at 4 in the experiment filed under Homo sapiens [1] and 69 in the experiment filed under Homo sapiens [8]. Moreover, the figures for the Ratio Ki in the experiment listed under Homo sapiens [2] and in the experiment listed under Homo sapiens [3] were 93 and 11, respectively. Further, the Ki on Melanocortin receptor 4 [4] is 263 nM; in [7] it was 2.82 nM; on Melanocortin receptor 3 [10], 30.9 nM. The EC50 at Melanocortin receptor 4 [5] was 16.6 nM; on Melanocortin receptor 3 [6], 0.955 nM; in [9] (read-out: EC50), < 0.3 nM; in experiment [9] (read-out: pEC50 (converted)), 0.24 nM.

`CCCC[C@@H]1NC(=O)[C@@H]2CSCCCSC[C@H](NC(=O)[C@H](CCCNC(=N)N)NC(=O)[C@H](CC(=O)O)NC(=O)[C@H](Cc3c[nH]c4ccccc34)NC(=O)[C@H](CCCNC(=N)N)NC(=O)[C@H](Cc3ccccc3)NC(=O)[C@H](Cc3cnc[nH]3)NC(=O)CNC1=O)C(=O)N[C@@H](Cc1cnc[nH]1)C(=O)N[C@@H](Cc1ccccc1)C(=O)N[C@@H](CCCNC(=N)N)C(=O)N[C@@H](Cc1c[nH]c3ccccc13)C(=O)N[C@@H](CCCNC(=N)N)C(=O)N2` (cyclo(CHFRWRC[Nle]GHFRWDR); linker 1-7 via X7): the Ratio EC50 in the experiment filed under Homo sapiens [1] worked out at 2; in the experiment listed under Homo sapiens [8], 20. The Ratio Ki in the experiment listed under Homo sapiens [2] amounted to 34; in the experiment filed under Homo sapiens [3], 15. In addition, the Ki is 44.7 nM on Melanocortin receptor 4 [4], 1.32 nM in [7] and 19.5 nM at Melanocortin receptor 3 [10]. The values for the EC50 (at Melanocortin receptor 4 [5]; at Melanocortin receptor 3 [6]; in [9] (read-out: pEC50 (converted))) were 2.88 nM, 0.302 nM and 0.141 nM, respectively.
